For 54 molecules, IC50 results are on record in patent publication US12240840B2, “Amide-substituted heterocyclic compounds for the treatment of conditions related to the modulation of IL-12, IL-23 and/or IFN-alpha” (BRISTOL-MYERS SQUIBB COMPANY, priority 2018, dated 2025).

This assay relates to IFNα-induced pSTAT5 (pY694) in CD3 positive cells of human whole blood. Put plainly: IFNα-Induced STAT Phosphorylation in Human Whole Blood. It is filed as cell-based. The conditions noted are these: Homo sapiens, 1 h compound incubation, 1000 U/mL recombinant human IFNα A/D for 15 min, pSTAT5 in CD3 positive population, read-out: Human WB IFNα-Induced Stat Phosph. (IC50). The gist of the method: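 Read-out is median fluorescence intensity of pSTAT5 (pY694) in the CD3-positive gate, by flow cytometry after fix/lyse and permeabilization. Before that, whole human blood anticoagulated with EDTA or ACD-A received compound for an hour and 1000 U/mL IFNα A/D for 15 min.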

Usually IC50 stands for the concentration that inhibits the measured activity by half.

Each structure is given as a SMILES string.

On to `[2H]C([2H])([2H])NC(=O)c1nnc(NC(=O)C2CC2)cc1Nc1cccc(-c2noc(C(=O)NCCC3CCCN3C)n2)c1OC` (stereo not drawn) [Example 21], for which the half-maximal inhibitory concentration (IC50) came out at 22 nM.

`[2H]C([2H])([2H])NC(=O)c1nnc(Nc2cc(C(C)(C)O)ccn2)cc1Nc1cc(F)cc(-c2cc(C(C)(C)O)n(C)n2)c1OC` [Example 547]: the half-inhibitory concentration (IC50) was 400 nM. The result for `[2H]C([2H])([2H])NC(=O)c1nnc(NC(=O)C2CC2)cc1Nc1cccc(-c2ncc(C(=O)N3CCC(CCO)CC3)s2)c1OC` [Example 297] reads 30 nM; that for `[2H]C([2H])([2H])NC(=O)c1nnc(NC(=O)C2CC2)cc1Nc1cccc(-c2ccn(CCNC(=O)CO)n2)c1OC` [Example 467], 200 nM; that for `[2H]C([2H])([2H])NC(=O)c1nnc(NC(=O)C2CC2)cc1Nc1cccc(-c2noc(C(C)(C)C(=O)N3CCOCC3)n2)c1OC` [Example 27], 2010 nM. The result for `COc1c(Nc2cc(NC(=O)C3CC3)nnc2C(N)=O)cccc1-c1noc(CS(C)(=O)=O)n1` [Example 64] reads 110 nM. The result for `[2H]C([2H])([2H])NC(=O)c1nnc(NC(=O)C2CC2)cc1Nc1cccc(-c2ncc(NC(=O)OC(C)(C)C)s2)c1OC` [Example 281] reads above 10000 nM. Consider `[2H]C([2H])([2H])NC(=O)c1nnc(NC(=O)C2CC2)cc1Nc1cccc(-c2noc(CN(C)S(C)(=O)=O)n2)c1OC` [Example 65], for which the IC50 amounted to 16 nM.

Take `[2H]C([2H])([2H])NC(=O)c1cnc(NC(=O)C2CC2)cc1Nc1cccc(-c2cnn(CCNC(C)=O)n2)c1OC` [Example 439]: the IC50 turned out to be 440 nM. The result for `[2H]C([2H])([2H])NC(=O)c1nnc(NC(=O)C2CC2)cc1Nc1cccc(-c2nc(CNC(=O)CN3CCN(S(C)(=O)=O)CC3)no2)c1OC` [Example 163] reads 1760 nM; that for `[2H]C([2H])([2H])NC(=O)c1nnc(NC(=O)C2CC2)cc1Nc1cccc(-c2nc(CN3CCN(C(=O)COC)CC3)no2)c1OC` [Example 127], 260 nM.

On to `[2H]C([2H])([2H])NC(=O)c1nnc(Nc2ccc(C)nn2)cc1Nc1cccc(-c2cn(CCN3CCOCC3)nn2)c1OC` [Example 424], for which the IC50 came to 200 nM. For the molecule `[2H]C([2H])([2H])NC(=O)c1nnc(NC(=O)C2CC2)cc1Nc1cccc(-c2nc([C@H](CO)NC(C)=O)no2)c1OC` [Example 199], the IC50 stood at 1080 nM. `[2H]C([2H])([2H])NC(=O)c1nnc(Nc2ccc(C)nn2)cc1Nc1cccc(-c2nc(CN3CCOCC3)no2)c1OC` [Example 237]: the IC50 is 70 nM. The result for `[2H]C([2H])([2H])NC(=O)c1cnc(NC(=O)C2CC2)cc1Nc1cccc(-c2nc(CCO)no2)c1OC` [Example 228] reads 180 nM; that for `[2H]C([2H])([2H])NC(=O)c1nnc(NC(=O)C2CC2)cc1Nc1cccc(-c2nc(CN(C)C(=O)CC#N)no2)c1OC` [Example 171], 690 nM; that for `[2H]C([2H])([2H])NC(=O)c1nnc(NC(=O)C2CC2)cc1Nc1cccc(-c2cnn(CCN)n2)c1OC` [Example 448], 140 nM. Take `[2H]C([2H])([2H])NC(=O)c1nnc(NC(=O)C2CC2)cc1Nc1cccc(-c2nc(CC(=O)N3CCOCC3)no2)c1OC` [Example 179]: the half-inhibitory concentration (IC50) is 290 nM. The result for `[2H]C([2H])([2H])NC(=O)c1nnc(NC(=O)C2CC2)cc1Nc1cccc(-c2ccn(CCNS(C)(=O)=O)n2)c1OC` [Example 466] reads 420 nM. The result for `[2H]C([2H])([2H])NC(=O)c1cnc(NC(=O)CC2CC2)cc1Nc1cccc(-c2noc(COC)n2)c1OC` [Example 86] reads 300 nM; that for `[2H]C([2H])([2H])NC(=O)c1nnc(NC(=O)C2CC2)cc1Nc1cccc(-c2ncc(CC(=O)NCCOC)s2)c1OC` [Example 255], 620 nM; that for `[2H]C([2H])([2H])NC(=O)c1cnc(NC(=O)C2CC2)cc1Nc1cccc(-c2nc(CN3CCOCC3)no2)c1OC` [Example 125], 60 nM. Take `[2H]C([2H])([2H])NC(=O)c1nnc(NC(=O)C2CC2)cc1Nc1cccc(-c2nc([C@H](C)N)no2)c1OC` [Example 181]: the concentration for half-maximal inhibition (IC50) came to 630 nM.

As for `[2H]C([2H])([2H])NC(=O)c1nnc(NC(=O)C2CC2)cc1Nc1cccc(-c2ncc(C(=O)NCCC3CCCN3C)s2)c1OC` (stereo not drawn) [Example 299], the half-inhibitory concentration (IC50) came out at 14 nM. For `[2H]C([2H])([2H])NC(=O)c1nnc(NC(=O)C2CC2)cc1Nc1cccc(-c2ncc(C(=O)N3CCC(N4CCCC4)CC3)s2)c1OC` [Example 350], the half-inhibitory concentration (IC50) is 40 nM.

Take `[2H]C([2H])([2H])NC(=O)c1nnc(NC(=O)C2CC2)cc1Nc1cccc(-c2cc(C(=O)N3CCC(CCN4CCCC4)CC3)n(C)n2)c1OC` [Example 541]: the half-inhibitory concentration (IC50) came out at 1390 nM. The result for `COc1c(Nc2cc(NC(=O)C3CC3)nnc2C(N)=O)cccc1-c1ncc(CN2CCN(S(C)(=O)=O)CC2)s1` [Example 395] reads 80 nM; that for `[2H]C([2H])([2H])NC(=O)c1cnc(Nc2ccc(OC)nn2)cc1Nc1cc(F)cc(-c2cc(C(=O)N(C)C)n(C)n2)c1OC` [Example 551], 50 nM; that for `[2H]C([2H])([2H])NC(=O)c1nnc(NC(=O)C2CC2)cc1Nc1cccc(-c2nc(C3(N)CC3)no2)c1OC` [Example 156], 630 nM. The result for `[2H]C([2H])([2H])NC(=O)c1nnc(Nc2cc(C(C)(C)O)ccn2)cc1Nc1cc(F)cc(-c2cc(C(=O)N(C)C)n(C)n2)c1OC` [Example 550] reads 240 nM. The result for `[2H]C([2H])([2H])NC(=O)c1nnc(NC(=O)C2CC2)cc1Nc1cccc(-c2ncc(C(=O)NC3CCC(O)CC3)s2)c1OC` (stereo not drawn) [Example 306] reads 440 nM.

Regarding `COc1c(Nc2cc(NC(=O)C3CC3)nnc2C)cccc1-c1ncn(C)n1` [Example 409, N-(5-((2-methoxy-3-(1-methyl-1H-1,2,4-triazol-3-yl)phenyl)amino)-6-methylpyridazin-3-yl)cyclopropanecarboxamide], the half-inhibitory concentration (IC50) was above 10000 nM. The result for `[2H]C([2H])([2H])NC(=O)c1cnc(NC(=O)C2CC2)cc1Nc1cc(F)cc(-c2cc(C(=O)N(C)C)n(C)n2)c1OC` [Example 456] reads 60 nM.

As for `[2H]C([2H])([2H])NC(=O)c1nnc(NC(=O)C2CC2)cc1Nc1cccc(-c2noc(C(CCC)C(=O)N3CCOCC3)n2)c1OC` (stereo not drawn) [Example 42], the IC50 was 230 nM. The result for `[2H]C([2H])([2H])NC(=O)c1cnc(NC(=O)C2CC2)cc1Nc1cccc(-c2noc(CN3CCOCC3)n2)c1OC` [Example 96] reads 15 nM; that for `[2H]C([2H])([2H])NC(=O)c1nnc(NC(=O)C2CC2)cc1Nc1cccc(-c2ncc(C(=O)N[C@H]3C[C@H]4CC[C@@H](C3)N4C)s2)c1OC` [Example 338], 420 nM; that for `[2H]C([2H])([2H])NC(=O)c1nnc(NC(=O)C2CC2)cc1Nc1cccc(-c2noc(C(C)C(=O)N3CCOCC3)n2)c1OC` (stereo not drawn) [Example 29], 130 nM. The result for `COc1c(Nc2cc(NC(=O)C3CC3)nnc2C(N)=O)cccc1-c1noc([C@H]2CCCN2S(C)(=O)=O)n1` [Example 53] reads 210 nM; that for `[2H]C([2H])([2H])NC(=O)c1nnc(NC(=O)C2CC2)cc1Nc1cccc(-c2noc(CO)n2)c1OC` [Example 69], 30 nM; that for `[2H]C([2H])([2H])NC(=O)c1nnc(NC(=O)C2CC2)cc1Nc1cccc(-c2ncc(CC(=O)NCC(O)CO)s2)c1OC` (stereo not drawn) [Example 248], 2240 nM.

On to `[2H]C([2H])([2H])NC(=O)c1nnc(NC(=O)C2CC2)cc1Nc1cccc(-c2noc(CCC(=O)N3CCOCC3)n2)c1OC` [Example 25], for which the IC50 came out at 430 nM.

As for `[2H]C([2H])([2H])NC(=O)c1cnc(NC(=O)C2CC2)cc1Nc1cccc(-c2cnn(CCNS(C)(=O)=O)n2)c1OC` [Example 436], the half-maximal inhibitory concentration (IC50) came out at 300 nM. On to `[2H]C([2H])([2H])NC(=O)c1nnc(NC(=O)C2CC2)cc1Nc1cccc(-c2ncc(C(=O)NCCCN3CCCC3)s2)c1OC` [Example 340], for which the half-inhibitory concentration (IC50) amounted to 100 nM. For the molecule `[2H]C([2H])([2H])NC(=O)c1nnc(NC(=O)C2CC2)cc1Nc1cccc(-c2nc([C@@H](C)N)no2)c1OC` [Example 191], the half-maximal inhibitory concentration (IC50) was 410 nM. For `[2H]C([2H])([2H])NC(=O)c1nnc(NC(=O)C2CC2)cc1Nc1cccc(-c2ncc(COCC)s2)c1OC` [Example 394], the half-inhibitory concentration (IC50) was 420 nM. The result for `[2H]C([2H])([2H])NC(=O)c1nnc(NC(=O)C2CC2)cc1Nc1cccc(-n2cc(CN3CCN(S(C)(=O)=O)CC3)nn2)c1OC` [Example 4] reads 660 nM. Take `[2H]C([2H])([2H])NC(=O)c1nnc(Nc2cnn(C)n2)cc1Nc1cccc(-c2ncc(C(=O)N(C)C)s2)c1OC` [Example 381]: the IC50 turned out to be 130 nM. The result for `[2H]C([2H])([2H])NC(=O)c1nnc(Nc2cc(C(C)(C)O)ccn2)cc1Nc1cccc(-c2csc(C(=O)NCCOC)n2)c1OC` [Example 571] reads 1760 nM; that for `[2H]C([2H])([2H])NC(=O)c1nnc(NC(=O)C2CC2)cc1Nc1cccc(-c2cc(C(=O)NCCN(C)C)n(C)n2)c1OC` [Example 536], 650 nM. Take `[2H]C([2H])([2H])NC(=O)c1nnc(NC(=O)C2CC2)cc1Nc1cccc(-c2ncc(C(=O)N3CCC(CCOC)CC3)s2)c1OC` [Example 325]: the concentration for half-maximal inhibition (IC50) worked out at 110 nM.

With `COc1c(Nc2cc(NC(=O)C3CC3)nnc2C(N)=O)cccc1-c1ncc(C(=O)N(C)C)s1` [Example 246], the IC50 was 30 nM.

For the molecule `[2H]C([2H])([2H])NC(=O)c1nnc(NC(=O)C2CC2)cc1Nc1cccc(-c2nc(C)c(C(=O)NCCC3CCCN3C)s2)c1OC` (stereo not drawn) [Example 355], the concentration for half-maximal inhibition (IC50) amounted to 380 nM. On to `[2H]C([2H])([2H])NC(=O)c1nnc(NC(=O)C2CC2)cc1Nc1cccc(-c2ncc(CC(=O)NCCCN(C)C)s2)c1OC` [Example 252], for which the half-maximal inhibitory concentration (IC50) is 3270 nM.

As for `[2H]C([2H])([2H])NC(=O)c1nnc(NC(=O)C2CC2)cc1Nc1cccc(-c2ncc(C(=O)N(C)CC)s2)c1OC` [Example 291], the IC50 was determined as 110 nM.
